In article PMC8580996, “2-Oxoglutarate derivatives can selectively enhance or inhibit the activity of human oxygenases” (Nature Communications, 2021):
“And” between values parts separate entries of the source, which are not always exact repeats. Equal entries are not always repeated.

How the values were obtained:
AspH [1] = biological target: T1, AspH (Homo sapiens, UniProt Q12797); test: Competition assay in a single reaction vessel, AspH-catalyzed hydroxylation (SPE-MS); format: biochemical
T1 construct: the tetratricopeptide repeat domain (His6-AspH315-758), was produced and purified as previously reported; made in house
T1 sequence (Q12797 315-758): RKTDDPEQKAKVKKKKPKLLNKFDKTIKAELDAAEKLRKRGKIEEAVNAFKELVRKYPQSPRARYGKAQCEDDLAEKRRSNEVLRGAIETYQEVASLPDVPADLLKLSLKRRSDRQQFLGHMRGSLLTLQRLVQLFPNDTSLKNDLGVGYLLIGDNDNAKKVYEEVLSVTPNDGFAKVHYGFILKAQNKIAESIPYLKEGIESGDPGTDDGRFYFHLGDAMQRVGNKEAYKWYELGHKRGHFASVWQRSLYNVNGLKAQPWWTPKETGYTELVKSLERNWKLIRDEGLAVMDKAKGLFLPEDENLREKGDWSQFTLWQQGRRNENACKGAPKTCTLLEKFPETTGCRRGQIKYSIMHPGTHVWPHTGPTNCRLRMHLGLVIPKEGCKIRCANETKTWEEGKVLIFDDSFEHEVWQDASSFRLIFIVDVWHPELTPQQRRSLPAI

FIH = FIH (Homo sapiens, UniProt Q9NWT6); test: Competition assay in a single reaction vessel, FIH-catalyzed hydroxylation (SPE-MS); format: biochemical
Method: Mean of three independent runs (n = 3; mean ± SD). […] Cosubstrates: a 20 μM 2OG; b 20 μM 2OG; c 20 μM 1; d 20 μM 12; e 20 μM 12 and 100 μM 2OG; f 100 μM 14. Source data are provided as a Source Data file.
Mean of three independent runs (n = 3; mean ± SD). […] Source data are provided as a Source Data file.
Peptide turnover was monitored by SPE-MS using the same instrument configuration (with the exception that the peptides were eluted from the SPE cartridge with 0.1%v/v aqueous formic acid in 80/20 v/v acetonitrile/water) as described above.
FIH and AspH-catalyzed peptide hydroxylations were analyzed simultaneously using SPE-MS as described in the
Methods section; competition experiments were performed in the same reaction vessel using equimolar 2OG
oxygenase and substrate concentrations. […]
Source data are provided as a Source Data file.
FIH and AspH-catalyzed peptide hydroxylations were analyzed simultaneously using SPE-
MS as described in the Methods section; competition experiments were performed in the same reaction vessel
using equimolar 2OG oxygenase and substrate concentrations. […]
2OG, 100 μM 14. Source data are provided as a Source Data file.

AspH [2] = biological target: T1, AspH; parameters: method as in PMID 34163896; conditions: hFX-CP101–119 substrate, 330 μM 2OG or 2OG derivative, t = 15 min; cited from earlier work
[3] = Fig 2e, 20 μM 12 and 100 μM 2OG

Sequence of FIH (Q9NWT6 whole entry): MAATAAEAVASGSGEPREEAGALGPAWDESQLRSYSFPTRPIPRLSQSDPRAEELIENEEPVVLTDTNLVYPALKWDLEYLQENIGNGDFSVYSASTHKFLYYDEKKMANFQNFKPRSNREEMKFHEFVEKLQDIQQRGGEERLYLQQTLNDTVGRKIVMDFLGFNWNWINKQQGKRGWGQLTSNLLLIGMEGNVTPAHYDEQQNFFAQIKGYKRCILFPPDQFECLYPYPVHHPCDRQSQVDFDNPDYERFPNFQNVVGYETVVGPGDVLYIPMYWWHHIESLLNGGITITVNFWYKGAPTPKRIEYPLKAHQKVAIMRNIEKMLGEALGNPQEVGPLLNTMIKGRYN

CC(CC(=O)O)C(=O)C(=O)O (stereo not shown) [compound 1, 3-methyl-2OG]
substrate hydroxylation (% conversion) (AspH [1]; Fig 2c, 20 μM 1, AspH, 3.5005 min): 100 | substrate hydroxylation (% conversion) (AspH [1]; Fig 2c, 20 μM 1, AspH, 4.20083 min): 100 | substrate hydroxylation (% conversion) (AspH [1]; Fig 2c, 20 μM 1, AspH, 5.60117 min): 100 | substrate hydroxylation (% conversion) (AspH [1]; Fig 2c, 20 μM 1, AspH, 6.29967 min): 100 | substrate hydroxylation (% conversion) (AspH [1]; Fig 2c, 20 μM 1, AspH, 7.00033 min): 100 | substrate hydroxylation (% conversion) (AspH [1]; Fig 2c, 20 μM 1, AspH, 7.7025 min): 100 | substrate hydroxylation (% conversion) (AspH [1]; Fig 2c, 20 μM 1, AspH, 8.40233 min): 100 | substrate hydroxylation (% conversion) (AspH [1]; Fig 2c, 20 μM 1, AspH, 9.10283 min): 100 | substrate hydroxylation (% conversion) (AspH [1]; Fig 2c, 20 μM 1, AspH, 9.806 min): 100 | substrate hydroxylation (% conversion) (AspH [1]; Fig 2c, 20 μM 1, AspH, […]): 100 | AspH-catalyzed hFX-EGFD1_86–124-4Ser hydroxylation (AspH [1]; Fig 2c, 20 μM 1, within ~2 min): > 95% | substrate hydroxylation (% conversion) (FIH; Fig 2c, 20 μM 1, FIH, 0 min): 3.506 and 4.816 and 5.633 | substrate hydroxylation (% conversion) (FIH; Fig 2c, 20 μM 1, FIH, 0.700167 min): 19.4856 and 18.7444 and 19.2793 | substrate hydroxylation (% conversion) (FIH; Fig 2c, 20 μM 1, FIH, 1.39933 min): 32.3038 and 30.8139 and 30.8824 | substrate hydroxylation (% conversion) (FIH; Fig 2c, 20 μM 1, FIH, 2.10017 min): 43.2797 and 40.6551 and 40.5787 | substrate hydroxylation (% conversion) (FIH; Fig 2c, 20 μM 1, FIH, 2.79917 min): 51.3082 and 49.0078 and 49.2389 | substrate hydroxylation (% conversion) (FIH; Fig 2c, 20 μM 1, FIH, 3.5005 min): 58.9995 and 56.3411 and 56.671 | substrate hydroxylation (% conversion) (FIH; Fig 2c, 20 μM 1, FIH, 4.20083 min): 64.1723 and 62.5798 and 63.2033 | substrate hydroxylation (% conversion) (FIH; Fig 2c, 20 μM 1, FIH, 4.9 min): 69.5252 and 67.0447 and 68.2025 | substrate hydroxylation (% conversion) (FIH; Fig 2c, 20 μM 1, FIH, 5.60117 min): 73.4042 and 71.6094 and 72.347 | substrate hydroxylation (% conversion) (FIH; Fig 2c, 20 μM 1, FIH, 6.29967 min): 77.1725 and 74.6235 and 74.9327 | substrate hydroxylation (% conversion) (FIH; Fig 2c, 20 μM 1, FIH, 7.00033 min): 79.731 and 76.5169 and 77.4955 | substrate hydroxylation (% conversion) (FIH; Fig 2c, 20 μM 1, FIH, 7.7025 min): 81.4904 and 79.3791 and 79.9762 | substrate hydroxylation (% conversion) (FIH; Fig 2c, 20 μM 1, FIH, 8.40233 min): 83.8334 and 81.9815 and 82.8865 | substrate hydroxylation (% conversion) (FIH; Fig 2c, 20 μM 1, FIH, 9.10283 min): 86.0072 and 84.3134 and 84.9864 | substrate hydroxylation (% conversion) (FIH; Fig 2c, 20 μM 1, FIH, 9.806 min): 87.2729 and 86.3042 and 86.5893 | substrate hydroxylation (% conversion) (FIH; Fig 2c, 20 μM 1, FIH, 11.207 min): 89.9552 and 84.6882 and 85.7483 | FIH-catalyzed CA1–20 hydroxylation (FIH; Fig 2c, 20 μM 1, after about 8 min): > 80% | AspH activity, %-substrate conversion (AspH [2]): >95%

CC(CC(=O)C(=O)O)C(=O)O (stereo not shown) [compound 12, 4-methyl-2OG]
time to complete AspH-catalyzed hydroxylation of hFX-EGFD1_86–124-4Ser (AspH [1]; [3]): ~ 2 min | substrate hydroxylation (% conversion) (AspH [1]; Fig 2e, 20 μM 12 and 100 μM 2OG, AspH, 1.918 min): 100 | substrate hydroxylation (% conversion) (AspH [1]; Fig 2e, 20 μM 12 and 100 μM 2OG, AspH, 2.15883 min): 100 | substrate hydroxylation (% conversion) (AspH [1]; Fig 2e, 20 μM 12 and 100 μM 2OG, AspH, 2.6405 min): 100 | substrate hydroxylation (% conversion) (AspH [1]; Fig 2e, 20 μM 12 and 100 μM 2OG, AspH, 2.88117 min): 100 | substrate hydroxylation (% conversion) (AspH [1]; Fig 2e, 20 μM 12 and 100 μM 2OG, AspH, 3.12267 min): 100 | substrate hydroxylation (% conversion) (AspH [1]; Fig 2e, 20 μM 12 and 100 μM 2OG, AspH, 3.36583 min): 100 | substrate hydroxylation (% conversion) (AspH [1]; Fig 2e, 20 μM 12 and 100 μM 2OG, AspH, 3.60733 min): 100 | substrate hydroxylation (% conversion) (AspH [1]; Fig 2e, 20 μM 12 and 100 μM 2OG, AspH, […]): 100 | AspH-catalyzed hFX-EGFD1_86–124-4Ser hydroxylation (AspH [1]; Fig 2d, 20 μM 12, after ~10 min): ~ 90% | FIH-catalyzed CA1–20 conversion (FIH; [3]): ~ 90% | substrate hydroxylation (% conversion) (FIH; Fig 2e, 20 μM 12 and 100 μM 2OG, FIH, 0 min): 15.3987 and 14.8576 and 13.209 | substrate hydroxylation (% conversion) (FIH; Fig 2e, 20 μM 12 and 100 μM 2OG, FIH, 0.237833 min): 27.0539 and 26.3778 and 23.9445 | substrate hydroxylation (% conversion) (FIH; Fig 2e, 20 μM 12 and 100 μM 2OG, FIH, 0.478833 min): 35.9286 and 35.8922 and 32.7293 | substrate hydroxylation (% conversion) (FIH; Fig 2e, 20 μM 12 and 100 μM 2OG, FIH, 0.717 min): 45.1159 and 43.9873 and 41.1347 | substrate hydroxylation (% conversion) (FIH; Fig 2e, 20 μM 12 and 100 μM 2OG, FIH, 0.956333 min): 51.8274 | substrate hydroxylation (% conversion) (FIH; Fig 2e, 20 μM 12 and 100 μM 2OG, FIH, 1.43767 min): 63.7405 and 62.295 and 59.0531 | substrate hydroxylation (% conversion) (FIH; Fig 2e, 20 μM 12 and 100 μM 2OG, FIH, 1.67667 min): 68.2711 and 66.7748 and 63.7338 | substrate hydroxylation (% conversion) (FIH; Fig 2e, 20 μM 12 and 100 μM 2OG, FIH, 1.918 min): 71.9325 and 70.2648 and 67.9993 | substrate hydroxylation (% conversion) (FIH; Fig 2e, 20 μM 12 and 100 μM 2OG, FIH, 2.15883 min): 75.384 and 73.508 and 70.5367 | substrate hydroxylation (% conversion) (FIH; Fig 2e, 20 μM 12 and 100 μM 2OG, FIH, 2.6405 min): 81.0929 and 78.2797 and 76.6153 | substrate hydroxylation (% conversion) (FIH; Fig 2e, 20 μM 12 and 100 μM 2OG, FIH, 2.88117 min): 82.6978 and 80.7392 and 78.6776 | substrate hydroxylation (% conversion) (FIH; Fig 2e, 20 μM 12 and 100 μM 2OG, FIH, 3.12267 min): 85.0838 and 82.5241 and 80.8532 | substrate hydroxylation (% conversion) (FIH; Fig 2e, 20 μM 12 and 100 μM 2OG, FIH, 3.36583 min): 85.9652 and 84.4207 and 82.727 | substrate hydroxylation (% conversion) (FIH; Fig 2e, 20 μM 12 and 100 μM 2OG, FIH, 3.60733 min): 87.7923 and 85.7936 and 83.2563 | substrate hydroxylation (% conversion) (FIH; Fig 2e, 20 μM 12 and 100 μM 2OG, FIH, 3.849 min): 88.932 and 84.1653 and 80.7905 | substrate hydroxylation (% conversion) (FIH; Fig 2d, 20 μM 12, FIH, 0 min): 8.164 and 7.161 and 7.808 | substrate hydroxylation (% conversion) (FIH; Fig 2d, 20 μM 12, FIH, 0.707167 min): 31.5759 and 26.6674 and 29.4313 | substrate hydroxylation (% conversion) (FIH; Fig 2d, 20 μM 12, FIH, 1.41317 min): 48.4989 and 42.8597 and 46.6007 | substrate hydroxylation (% conversion) (FIH; Fig 2d, 20 μM 12, FIH, 2.12133 min): 61.9239 and 55.8625 and 59.591 | substrate hydroxylation (% conversion) (FIH; Fig 2d, 20 μM 12, FIH, 2.822 min): 71.1548 and 65.8729 and 69.0603 | substrate hydroxylation (% conversion) (FIH; Fig 2d, 20 μM 12, FIH, 3.52117 min): 77.6139 and 72.8151 and 76.4316 | substrate hydroxylation (% conversion) (FIH; Fig 2d, 20 μM 12, FIH, 4.22083 min): 82.6095 and 78.8355 and 81.4405 | substrate hydroxylation (% conversion) (FIH; Fig 2d, 20 μM 12, FIH, 4.9205 min): 86.3253 and 83.0223 and 85.6621 | substrate hydroxylation (% conversion) (FIH; Fig 2d, 20 μM 12, FIH, 5.62167 min): 89.1149 and 86.1539 and 88.6579 | substrate hydroxylation (% conversion) (FIH; Fig 2d, 20 μM 12, FIH, 6.3215 min): 91.4092 and 88.7795 and 90.8352 | substrate hydroxylation (% conversion) (FIH; Fig 2d, 20 μM 12, FIH, 7.02117 min): 93.1171 and 89.921 and 92.1057 | substrate hydroxylation (% conversion) (FIH; Fig 2d, 20 μM 12, FIH, 7.724 min): 94.3469 and 91.6232 and 93.2231 | substrate hydroxylation (% conversion) (FIH; Fig 2d, 20 μM 12, FIH, 8.42383 min): 95.3806 and 92.9188 and 94.5877 | substrate hydroxylation (% conversion) (FIH; Fig 2d, 20 μM 12, FIH, 9.1255 min): 96.194 and 94.1363 and 95.5545 | substrate hydroxylation (% conversion) (FIH; Fig 2d, 20 μM 12, FIH, 9.83 min): 97.3851 and 94.9972 and 96.1755 | substrate hydroxylation (% conversion) (FIH; Fig 2d, 20 μM 12, FIH, 10.5315 min): 98.7917 and 94.9441 and 95.9828 | FIH-catalyzed CA1–20 hydroxylation (FIH; Fig 2d, 20 μM 12, after ~5 min): ~ 90% | AspH activity, %-substrate conversion (AspH [2]): ~10%
